Source: ChEMBL document CHEMBL5604063, “ASAP - DENV-2 NS2B-NS3 protease fluorescence dose response” (2024)
pIC50: −log10 of the molar value. Where “and” joins values, the source holds several entries; their conditions need not be identical. Identical values can stand only once.

Key:
Genome polyprotein [1] = molecular target: T1, Genome polyprotein (dengue virus type 2, UniProt P29990); format: functional, Thailand/16681/1984
Genome polyprotein [2] = molecular target: T1, Genome polyprotein; format: functional, Thailand/16681/1984; remark: listed apart in the source

T1 sequence (P29990 1346-1475 limits assumed): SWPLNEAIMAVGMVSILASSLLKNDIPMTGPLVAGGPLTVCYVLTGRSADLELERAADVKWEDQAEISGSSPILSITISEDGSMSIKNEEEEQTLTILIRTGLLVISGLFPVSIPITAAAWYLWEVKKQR
T1 sequence (P29990 1476-2093 limits assumed): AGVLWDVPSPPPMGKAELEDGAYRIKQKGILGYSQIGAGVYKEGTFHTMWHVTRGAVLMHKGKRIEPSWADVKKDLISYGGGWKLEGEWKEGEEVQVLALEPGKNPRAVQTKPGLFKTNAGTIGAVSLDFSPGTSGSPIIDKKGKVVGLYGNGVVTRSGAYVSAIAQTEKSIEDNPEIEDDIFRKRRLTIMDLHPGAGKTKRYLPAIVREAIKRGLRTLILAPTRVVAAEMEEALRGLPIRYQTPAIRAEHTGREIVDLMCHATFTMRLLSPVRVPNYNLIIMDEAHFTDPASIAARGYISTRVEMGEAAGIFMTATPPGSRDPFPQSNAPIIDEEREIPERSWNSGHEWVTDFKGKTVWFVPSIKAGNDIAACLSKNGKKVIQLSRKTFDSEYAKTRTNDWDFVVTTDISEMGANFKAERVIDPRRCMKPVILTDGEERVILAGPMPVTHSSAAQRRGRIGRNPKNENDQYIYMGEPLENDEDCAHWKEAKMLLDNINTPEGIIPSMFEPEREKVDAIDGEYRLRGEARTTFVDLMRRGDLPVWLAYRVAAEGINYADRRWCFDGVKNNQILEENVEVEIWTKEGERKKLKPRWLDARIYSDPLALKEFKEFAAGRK

SMILES	pIC50 (Genome polyprotein [1])	pIC50 (Genome polyprotein [2])
O=C(Nc1cc(Cl)cc([C@H](C#CCO)Nc2cccc(-c3nn[nH]n3)c2)c1)OCc1ccccc1	5.10 and 5.15	4.87 and 4.89
O=C(Nc1cc(Cl)cc(C(=O)NCC[C@H]2C[C@@H]2C(=O)O)c1)OCc1ccccc1	< 4.00	< 4.00
Cc1c(C(=O)Nc2cc(CCCN)ccc2F)cc(C2CC2)n1C	< 4.00	< 4.00
Clc1cc(/C=C/c2cccc(-c3nn[nH]n3)c2)c2cn[nH]c2c1	< 4.00	< 4.00
N#C[C@H](Nc1cccc(-c2nn[nH]n2)c1)c1cc(Cl)cc(NC(=O)OCc2ccccc2)c1	5.06 and 5.18 and 4.94 and 5.08	4.98 and 4.86 and 5.01
O=C(Nc1ccc2c(c1)CNC2)c1cc(Cl)cc2[nH]ncc12	< 4.00	4.14 and 4.23 and 4.05
CCCc1sc(C(=O)Nc2cccc(-c3nnn[nH]3)c2)cc1CC	4.72 and 4.69	4.34
C=CC[C@H](Nc1cccc(-c2nn[nH]n2)c1)c1cc(Cl)cc2[nH]ncc12	4.27 and 4.35	4.04
Cc1c(C(=O)Nc2ccc([C@@H](C)N)cc2)cc(C2CC2)n1C	< 4.00	< 4.00
CNC(=O)[C@H](Nc1cccc(-c2nn[nH]n2)c1)c1cc(Cl)cc(NC(=O)OCc2ccccc2)c1	4.55 and 4.68	4.31
O=C(O)CCCc1ccc(NC(=O)c2cc(Cl)cc(NC(=O)OCc3ccccc3)c2)cc1	4.56 and 4.67	4.36
O=C(Nc1cc(Cl)cc(C(=O)Nc2cncc(C(=O)O)c2)c1)OCc1ccccc1	4.49 and 4.56	4.15
NCCc1ccc([C@H]2C[C@@H]2c2cc(Cl)cc(NC(=O)OCc3ccccc3)c2)cc1	4.23 and 4.50	5.14 and 5.06
CNC(=O)[C@H](Nc1cccc(-c2nn[nH]n2)c1)c1cc(Cl)cc2[nH]ncc12	< 4.00	< 4.00
NCc1ccc2nc(-c3cc(Cl)cc(NC(=O)OCc4ccccc4)c3)c(CCCO)cc2c1	< 4.00	4.05
Clc1cc(CCc2cccc(-c3nn[nH]n3)c2)c2cn[nH]c2c1	4.00	< 4.00
O=C(Nc1cc(Cl)cc(-c2ccc3[nH]c(C(=O)O)cc3c2)c1)OCc1ccccc1	5.26 and 5.31	5.18 and 5.26
O=C(Nc1ccc(-c2nnn[nH]2)cc1)c1cc(Cl)cc(C2CC2)c1	4.43 and 4.44	4.16
CCNC(=O)Nc1cc(Cl)cc(C(=O)Nc2cc(C)cc(CN)c2)c1	< 4.00	< 4.00

SMILES	pIC50 (Genome polyprotein [1])	pIC50 (Genome polyprotein [2])
O=C(Nc1cc(Cl)cc(S(=O)(=O)Nc2cccc(-c3nn[nH]n3)c2)c1)OCc1ccccc1	4.94 and 5.05	4.65
NCc1cc(C(=O)O)cc([C@@H]2C[C@H]2c2cc(Cl)cc(NC(=O)OCc3ccccc3)c2)c1	< 4.00	< 4.00
CCc1nc(C)c(C(=O)Nc2cccc(-c3nnn[nH]3)c2)s1	< 4.00	< 4.00
C[C@H](C(=O)O)c1cccc(NC(=O)c2cc(Cl)cc(NC(=O)OCc3ccccc3)c2)c1	4.61 and 4.57	4.23
C=CC[C@H](Nc1cc(Cl)cc(NC(=O)OCc2ccccc2)c1)c1cccc(-c2nn[nH]n2)c1	5.17 and 5.30 and 5.26 and 5.24 and 5.38	5.13 and 5.12
O=C(Nc1cc(Cl)cc([C@H]2C[C@@H]2c2cccc(C3CCNCC3)c2)c1)OCc1ccccc1	4.27 and 4.46	5.17 and 5.16
CCNC(=O)Nc1cc(Cl)cc(C(=O)Nc2ccc3c(c2)CNCCO3)c1	< 4.00	< 4.00
C=CC[C@H](Nc1cc(CN)ccn1)c1cc(Cl)cc(NC(=O)OCc2ccccc2)c1	< 4.00	< 4.00
CNC(=O)[C@H](Nc1cccc(C(=O)O)c1)c1cc(Cl)cc2[nH]ncc12	< 4.00	< 4.00
O=C(Nc1cc(Cl)cc([C@H](C#CCO)Nc2ccc(-c3nn[nH]n3)cc2)c1)OCc1ccccc1	5.09 and 5.17	4.91
C#C[C@H](Nc1cccc(-c2nn[nH]n2)c1)c1cc(Cl)cc(NC(=O)OCc2ccccc2)c1	5.03 and 5.08	4.97
Cc1c(C(=O)Nc2cc(F)cc(CN)c2)cc(C2CC2)n1C	< 4.00	< 4.00
Cc1c(C(=O)Nc2cccc(CN)c2)cc(C2CCC2)n1C	< 4.00	< 4.00
Cc1c(C(=O)Nc2ccc(CN)cc2)cc(C2CC2)n1C	< 4.00	< 4.00
CN1C[C@H](c2cccc(CN)c2)[C@@H](c2cc(Cl)cc(NC(=O)OCc3ccccc3)c2)C1	< 4.00	< 4.00
O=C(Nc1cc(Cl)cc(C(=O)N[C@H]2CCCC[C@@H]2C(=O)O)c1)OCc1ccccc1	< 4.00	< 4.00
Cc1c(C(=O)Nc2cc(CN)ccc2F)cc(C2CC2)n1C	< 4.00	< 4.00
CNC(=O)[C@H](Nc1cc(Cl)cc(NC(=O)OCc2ccccc2)c1)c1cccc(-c2nn[nH]n2)c1	4.65 and 4.74	4.34 and 4.36
NCc1cccc([C@H](CCCO)Nc2cc(Cl)cc(NC(=O)OCc3ccccc3)c2)c1	< 4.00	4.07

SMILES	pIC50 (Genome polyprotein [1])	pIC50 (Genome polyprotein [2])
O=C(Nc1cc(Cl)cc([C@H]2C[C@@H]2c2ccc3c(c2)CNC3)c1)OCc1ccccc1	< 4.00	< 4.00
O=C(Nc1cc(Cl)cc(C(=O)Nc2cccc(C3(C(=O)O)CCC3)c2)c1)OCc1ccccc1	4.90 and 4.89	4.61
O=C(Nc1cc(Cl)cc(C(=O)Nc2cc(-c3nnn[nH]3)ccc2F)c1)OCc1ccccc1	4.96 and 5.13	4.81
N#C[C@H](Nc1ccc(-c2nn[nH]n2)cc1)c1cc(Cl)cc(NC(=O)OCc2ccccc2)c1	5.14 and 4.89	4.97
NCc1ccc([C@H]2C[C@@H]2c2cc(Cl)cc(NC(=O)OCc3ccccc3)c2)cc1	< 4.00	5.01 and 4.96
CCc1cc(C(=O)Nc2cccc(-c3nnn[nH]3)c2)sc1C	< 4.00	< 4.00
CCNC(=O)Nc1cc(Cl)cc(C(=O)Nc2cccc(-n3nn[nH]c3=O)c2)c1	< 4.00	< 4.00
O=C(O)CCCc1cccc(NC(=O)c2cc(Cl)cc(NC(=O)OCc3ccccc3)c2)c1	4.62 and 4.71	4.43
C=CC[C@H](Nc1cccc(-c2nn[nH]n2)c1)c1cc(Cl)cc(NC(=O)OCc2ccccc2)c1	5.21 and 5.30	5.16
O=C(Nc1cc(Cl)cc(C(=O)N[C@H](c2nn[nH]n2)C2CCNCC2)c1)OCc1ccccc1	< 4.00	< 4.00
O=C(Nc1cc(Cl)cc(/C=C/c2cccc(-n3nn[nH]c3=O)c2)c1)OCc1ccccc1	4.94 and 5.06	5.06 and 5.07
O=C(Nc1cc(Cl)cc(S(=O)(=O)Nc2cccc(-n3nn[nH]c3=O)c2)c1)OCc1ccccc1	4.79 and 4.85	4.47
O=C(O)CCc1cccc(NC(=O)c2cc(Cl)cc(NC(=O)OCc3ccccc3)c2)c1	4.78 and 4.71	4.32
COC(=O)c1cc(Cl)cc(S(=O)(=O)Nc2cccc(-c3nnn[nH]3)c2)c1F	< 4.00	< 4.00
N#C[C@H](Nc1cc(Cl)cc(NC(=O)OCc2ccccc2)c1)c1ccc(-c2nn[nH]n2)cc1	5.16 and 5.25	5.02
CNC(=O)C[C@H](Nc1cccc(F)n1)c1cc(Cl)cc(Br)c1	< 4.00	< 4.00
COc1c(C(N)=O)cc(Cl)cc1S(=O)(=O)Nc1cccc(-c2nnn[nH]2)c1	< 4.00	< 4.00
O=C(Nc1cc(Cl)cc(C(=O)Nc2ccc([C@@H]3C[C@H]3C(=O)O)cc2)c1)OCc1ccccc1	5.02 and 5.03	4.71
CCc1cc(C(=O)Nc2cccc(-c3nnn[nH]3)c2)nn1-c1ccccc1	< 4.00	< 4.00
